Measured values as given in patent US11883423B2, “Nucleobase analogue derivatives and their applications” (BOARD OF REGENTS, THE UNIVERSITY OF TEXAS SYSTEM, priority 2014, dated 2024).

Experiments:
Panc-02 cells = test: Cytotoxicity, LDH assay, Panc-02 cells; assay type: cell-based, mouse; conditions: 48 h
Description: The cytotoxic activity of Gem-DHA was also evaluated using an LDH assay kit (Takara Clontech). Panc-02 cells were seeded in 96-well plates at 1,500 cells/well and incubated at 37° C. and 5% CO2 for 24 h, followed by treatment with Gem-DHA or gemcitabine HCl as mentioned above for 48 h. LDH activity in the cell culture medium was determined following the manufacturer's instruction.

[1] = test system: TC-1 mouse lung cancer cells; test: Anti-proliferative activity, MTT assay, TC-1 cells; assay type: cell-based; conditions: 24 h
Description: The anti-proliferative activity of Gem-DHA was evaluated in Panc-02, TC-1, Panc-1-Luc, and BxPC-3 cell lines. For Panc-02 and TC-1 cells, cells (1,500/well for Panc-02 and 3,000/well for TC-1) were seeded in 96-well plates and incubated at 37° C. and 5% CO2 overnight. The cells were then treated with various concentrations of Gem-DHA or other compounds for 24 h. For BxPC-3 and Panc-1-Luc cells, 3,000 and 1,000 cells/well were used, respectively, and cells were co-incubated with the Gem-DHA for 72 h. Cell viability was determined using an MTT assay as previously described (Naguib YW et al. Mol Pharm. 2014, 11(4), 1239-1249). Gemcitabine HCl was dissolved in cell culture medium, whereas Gem-DHA and DHA were dissolved in dimethylsulfoxide (DMSO). The values of IC50 were calculated using GraphPad Prism (GraphPad software, Inc., La Jolla, CA).

[2] = test system: NCI-60 human tumor cell lines; test: NCI-60 DTP Human Tumor Cell Line Screen, single dose; assay type: cell-based
Description: The cytotoxicity of Gem-DHA was also tested using the NCI-60 DTP Human Tumor Cell Line Screen service.

[3] = Octanol-water (PBS 7.4) partition coefficient; assay type: physicochemical; conditions: in octanol under the test conditions
Description: The octanol-water partition coefficient of Gem-DHA was determined using a previously reported method with minor modifications (Hsu CH et al. Pharm Res. 2003, 20(6), 918-925). Briefly, octanol and PBS (7.4, 0.01 M) were mutually saturated for 24 h. Gem-DHA was dissolved in octanol (0.4 mg/ml, PBS-saturated) and 10 μl of the solution were withdrawn and diluted with methanol to measure Gem-DHA concentration using HPLC (C1) PBS was added to octanol at a volume ratio (VPBS/Voct) of 20:1 into a sealed vial under nitrogen, and the mixture was agitated vigorously at room temperature using a horizontal orbital shaker at 250 rpm (Max Q 2000, Thermo Scientific, Waltham, Mass.) while protected from light. After 5 h, the mixture was centrifuged (14,000 rpm, 15 min) and the concentration of Gem-DHA in the octanol layer was determined using HPLC (C2). Partition coefficient (Koctiwater) was calculated using the following equation: […]
The partition coefficient (octanol/PBS 7.4) of Gem-DHA was also measured using an indirect method by determining the concentration of the drug in octanol, before and after partitioning.

Panc-02 tumor cells = test: Cytotoxicity after 4 h co-incubation, MTT test; assay type: cell-based, mouse; conditions: Panc-02 cells, at 60 μM
Description: The mechanisms underlying the cytotoxicity of the Gem-DHA may be different from that of gemcitabine. For example, in cell culture studies, Panc-02 cells were seeded into 96-well plates (1,500 cells per well) and incubated at 37° C., 5% CO2 for 24 h. They were then co-incubated with various concentrations of Gem-DHA, gemcitabine HCl alone, or DHA alone for 4 h, and cell viability was determined using an MTT test.

[4] = Aqueous solubility by the indirect method (IPM/water partitioning, Beall et al.); assay type: physicochemical
Description: The aqueous solubility of Gem-DHA was determined following an indirect method according to Beall et al. with minimal modifications (Beall HD et al. International Journal of Pharmaceutics. 1993, 93, 37-47). Briefly, an excess amount of Gem-DHA was added to 100 μl of IPM in a crimp-sealed amber glass vials under nitrogen and was stirred vigorously at room temperature for 24 h, protected from light. After the stirring was stopped, the mixture was left to stand for an additional 24 h for equilibration. The content of the vial was centrifuged (14,000 rpm, 10 min) and the supernatant was transferred into a different tube. Aliquots of the saturated IPM solution were used to measure the Gem-DHA concentration before partitioning (A1) using HPLC (after proper dilution with methanol). Then, water was added to the IPM saturated solution in a volume ratio of 10:1. The two phases were mixed by vortexing for 5 min, left to stand for 15 min, then centrifuged (14,000 rpm, 15 min) to collect the IPM layer. Gem-DHA concentration in the IPM layer (A2) was again measured using HPLC after partitioning. The following equation was used to calculate the partition coefficient (KIPM/water) (Beall HD et al. International Journal of Pharmaceutics. 1993, 93, 37-47):
[formula] where Vwater is the volume of the water phase and VIPM is the volume of IPM. The value of (Vwater/VIPM) was 10.
The aqueous solubility (Sw) of Gem-DHA was determined using the following equation (Id.):
[formula] where SIPM is the solubility of Gem-DHA in IPM.
In order to validate the method of Beall et al. (Id.), the aqueous solubility of 4-(N)-stearoyl gemcitabine, another lipophilic gemcitabine conjugate (Sloat BR et al. Int J Pharm. 2011, 409(1-2), 278-288), which is stable in water, was measured directly (i.e., direct method) or using the indirect method reported by Beall et al. (Beall HD et al. International Journal of Pharmaceutics. 1993, 93, 37-47).

Panc-02 tumors = test: Antitumor activity against s.c. Panc-02 tumors in C57BL/6 mice; assay type: in vivo
Description: Therefore, the in vivo anti-tumor activity of Gem-DHA was also evaluated and compared to that of DHA alone in male C57BL/6 mice (6-8 weeks, Charles River) with subcutaneously (s.c.)
implanted Panc-02 tumors. Briefly, 1×10^6 cells were s.c. injected in the right flank of mice. Sixteen days later, mice were randomized into groups (n=12) and i.p. injected with Gem-DHA (˜55 mg/kg, […]) or DHA (˜33 mg/kg, ˜0.1 mmole/kg). Mice in the control group were i.p. injected with sterile 5% mannitol (w/v). Gem-DHA and DHA was dissolved in a Tween 80/ethanol/water solution with 5% (w/v) of mannitol. The doses were based on the average weight of mice in the same group on the first day of injection. The treatment was repeated twice a week for up to 6 doses. Tumor growth was monitored using a digital caliper, and tumor volume was calculated based on the longest diameter (L1) and the shortest diameter (L2) of each tumor using the equation of V=½×(L1×L2×L2).

CC/C=C\C/C=C\C/C=C\C/C=C\C/C=C\C/C=C\CCC(=O)Nc1ccn(C2OC(CO)C(O)C2(F)F)c(=O)n1 (stereo not drawn) [Gem-DHA, 4-(N)-Docosahexaenoyl Difluorodeoxycytidine]
Cytotoxicity, LDH assay (comparison) (Panc-02 cells): more cytotoxic than gemcitabine HCl | Inhibition of tumor cell growth (comparison) [1]: more effective than gemcitabine alone or the physical mixture of gemcitabine and DHA | Growth inhibition in NCI-60 screen [2]: inhibited the growth of various types of human tumor cells | Time stable in octanol [3]: at least 18 h | Cytotoxicity after 4 h of co-incubation (Panc-02 tumor cells): significant cytotoxicity | KIPM/water (partition coefficient) [4]: 194.72 ± 111.3 | Stability in IPM, remaining ([4]; buffer, 48 h): > 92% | Tolerability (body weights) (Panc-02 tumors; Panc-02 tumor-bearing mice, dosing regimen tested): well tolerated | Inhibition of Panc-02 tumor growth (Panc-02 tumors; i.p., ~0.1 mmole/kg, twice a week, up to 6 doses): significantly inhibited the tumor growth
